Data on eleven compounds can be found in ChEMBL document CHEMBL4346725, “Molecular design and anticancer activities of small-molecule monopolar spindle 1 inhibitors: A Medicinal chemistry perspective” (Eur J Med Chem, 2019).

Broadly, the IC50 is the midpoint of a concentration-inhibition curve. A higher IC50 goes with weaker potency in that assay. A word on the inhibition: it is the change of the read-out against control, counted positive when it falls. A low value points to a weak effect. For orientation: AUC means concentration integrated over time. Broadly, the half-life is how long it takes for the measured level to halve. Low values mean fast loss, high ones slow loss. For orientation: bioavailability means the share of a dose that reaches the circulation, judged against a reference dose that is usually intravenous. Lower therefore signals poor availability. The term Ki denotes a measure of affinity in units of concentration, obtained from inhibition or displacement. The term Cmax denotes the highest concentration seen after dosing.

Series [1] deals with T1, Dual specificity protein kinase TTK (Homo sapiens, UniProt P33981).
T1 sequence (P33981 whole entry): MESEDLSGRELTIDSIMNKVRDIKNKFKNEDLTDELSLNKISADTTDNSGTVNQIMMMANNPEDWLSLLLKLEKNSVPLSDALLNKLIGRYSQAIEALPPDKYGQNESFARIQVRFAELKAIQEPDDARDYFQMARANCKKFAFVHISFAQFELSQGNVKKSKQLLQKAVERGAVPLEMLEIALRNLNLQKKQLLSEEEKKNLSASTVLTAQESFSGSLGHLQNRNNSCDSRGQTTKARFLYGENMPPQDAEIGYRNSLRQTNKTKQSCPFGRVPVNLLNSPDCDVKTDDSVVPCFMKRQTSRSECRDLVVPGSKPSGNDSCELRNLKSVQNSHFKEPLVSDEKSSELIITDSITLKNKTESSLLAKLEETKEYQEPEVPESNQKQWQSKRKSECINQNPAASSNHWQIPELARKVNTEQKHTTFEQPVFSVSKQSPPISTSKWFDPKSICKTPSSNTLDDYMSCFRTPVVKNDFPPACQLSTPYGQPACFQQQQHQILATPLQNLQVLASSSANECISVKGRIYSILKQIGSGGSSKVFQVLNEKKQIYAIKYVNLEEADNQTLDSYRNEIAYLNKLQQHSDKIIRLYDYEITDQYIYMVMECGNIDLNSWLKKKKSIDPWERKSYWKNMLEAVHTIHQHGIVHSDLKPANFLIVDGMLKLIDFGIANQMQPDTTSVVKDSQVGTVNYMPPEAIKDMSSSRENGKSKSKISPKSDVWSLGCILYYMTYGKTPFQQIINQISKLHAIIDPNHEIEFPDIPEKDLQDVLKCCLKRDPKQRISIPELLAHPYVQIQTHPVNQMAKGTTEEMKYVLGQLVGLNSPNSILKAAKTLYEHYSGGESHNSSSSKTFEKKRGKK
As to the kind of experiment: Inhibition of MPS1 (unknown origin).

Series [2] deals with Focal adhesion kinase 1 (Homo sapiens) (UniProt Q05397). Put plainly: Inhibition of FAK (unknown origin) relative to control. Particulars: concentration not given here.
Series [3] concerns the target Mitogen-activated protein kinase 8 (Homo sapiens) (UniProt P45983). As to the kind of experiment: Inhibition of JNK1 (unknown origin) relative to control. As to conditions: concentration not given here.
Series [4] addresses Mast/stem cell growth factor receptor Kit (Homo sapiens) (UniProt P10721). Put plainly: Inhibition of KIT (unknown origin) relative to control. As to conditions: concentration not given here.
Series [5] has as its target Mitogen-activated protein kinase 9 (Homo sapiens) (UniProt P45984). As to the kind of experiment: Inhibition of JNK2 (unknown origin) relative to control. As to conditions: concentration not given here.
The subject of a further series is A549. As to the kind of experiment: animal or person. As to conditions: Mus musculus, A549, po, read-out: TGI.
A short description of the next series: in vivo. As to conditions: mouse, ip, 150 mg/kg.
Series [6] concerns HCT-116. As to the kind of experiment: animal or person. Particulars: Mus musculus, HCT-116, ip, read-out: TGI.
The subject of series [7] is HCT-116. As to the kind of experiment: animal or person. Particulars: Mus musculus, HCT-116, ip, 96 h, read-out: TGI.
The test system of a further series is COLO 205. Put plainly: animal or person. As to conditions: Mus musculus, COLO 205, ip, 96 h, read-out: TGI.
Series [8] is described as follows: Half life in mouse xenografted with human A2780 cells at 90 mg/kg, po daily administered for 7 consecutive days. It counts as ADME, organism-based. As to conditions: in vivo. In general terms: A xenograft is tissue or cells of one species grown in another, often human tumour cells in immunodeficient mice.
The nature of series [9]: Oral bioavailability in mouse xenografted with human A2780 cells at 90 mg/kg daily administered for 7 consecutive days. It is filed as ADME, organism-based. Particulars: in vivo.
The next series concerns A2780. As to the kind of experiment: Antitumor activity against human A2780 cells xenografted in mouse assessed as tumor growth inhibition at 90 mg/kg, po daily administered for 7 consecutive days relative to control. It is filed as functional. As to conditions: read-out: TGI.
Series [10] concerns the target T1, Dual specificity protein kinase TTK. Put plainly: Inhibition of MPS1 (510 to 857 residues) catalytic domain (unknown origin) expressed in Escherichia coli after 15 mins by mass-spectrometry analysis.
For series [11] the target is unchanged. Put plainly: Inhibition of glioblastoma patient derived MPS1.
A short description of series [12]: Half life in mouse at 5 mg/kg, ip. As to conditions: in vivo. It is filed as ADME, organism-based.
Series [13] is described as follows: Cmax in mouse at 5 mg/kg, ip. On the set-up: dose 5 mg/kg, route intraperitoneal. It is filed as ADME, organism-based. As to conditions: in vivo.
Series [14] in a line: Half life in mouse at 5 mg/kg, iv. It counts as ADME, organism-based. As to conditions: in vivo.
Series [15] in a line: Cmax in mouse at 5 mg/kg, iv. Particulars: in vivo. On the set-up: dose 5 mg/kg, route intravenous. It counts as ADME, organism-based.
Series [16] is described as follows: Half life in mouse at 5 mg/kg, po. It counts as ADME, organism-based. Particulars: in vivo.
The nature of series [17]: Cmax in mouse at 5 mg/kg, po. It counts as ADME, organism-based. On the set-up: dose 5 mg/kg, route oral. Particulars: in vivo.
The nature of series [18]: Oral bioavailability in mouse at 5 mg/kg. It is filed as ADME, organism-based. As to conditions: in vivo.
Series [19] in a line: Bioavailability in mouse at 5 mg/kg, ip. It is filed as ADME, organism-based. As to conditions: in vivo.
Another series deals with MDA-MB-231. As to the kind of experiment: Antiproliferative activity against human MDA-MB-231 cells after 7 days by cell titer-glo assay. It is filed as functional, cell-based. As to conditions: MDA-MB-231, 168 h. A general note: ATP-based viability assays read luminescence as a measure of living cells.
The next series concerns Mus musculus. Put plainly: In vivo inhibition of MPS1 in mouse xenografted with human HCT116 cells at 100 mg/kg, po after 24 hrs by LC-MS analysis relative to control. It is filed as functional. Particulars: HCT-116, po.

Bounds are passed on as bounds.

Sequence of Focal adhesion kinase 1 (Homo sapiens) (Q05397 2-1052 limits assumed): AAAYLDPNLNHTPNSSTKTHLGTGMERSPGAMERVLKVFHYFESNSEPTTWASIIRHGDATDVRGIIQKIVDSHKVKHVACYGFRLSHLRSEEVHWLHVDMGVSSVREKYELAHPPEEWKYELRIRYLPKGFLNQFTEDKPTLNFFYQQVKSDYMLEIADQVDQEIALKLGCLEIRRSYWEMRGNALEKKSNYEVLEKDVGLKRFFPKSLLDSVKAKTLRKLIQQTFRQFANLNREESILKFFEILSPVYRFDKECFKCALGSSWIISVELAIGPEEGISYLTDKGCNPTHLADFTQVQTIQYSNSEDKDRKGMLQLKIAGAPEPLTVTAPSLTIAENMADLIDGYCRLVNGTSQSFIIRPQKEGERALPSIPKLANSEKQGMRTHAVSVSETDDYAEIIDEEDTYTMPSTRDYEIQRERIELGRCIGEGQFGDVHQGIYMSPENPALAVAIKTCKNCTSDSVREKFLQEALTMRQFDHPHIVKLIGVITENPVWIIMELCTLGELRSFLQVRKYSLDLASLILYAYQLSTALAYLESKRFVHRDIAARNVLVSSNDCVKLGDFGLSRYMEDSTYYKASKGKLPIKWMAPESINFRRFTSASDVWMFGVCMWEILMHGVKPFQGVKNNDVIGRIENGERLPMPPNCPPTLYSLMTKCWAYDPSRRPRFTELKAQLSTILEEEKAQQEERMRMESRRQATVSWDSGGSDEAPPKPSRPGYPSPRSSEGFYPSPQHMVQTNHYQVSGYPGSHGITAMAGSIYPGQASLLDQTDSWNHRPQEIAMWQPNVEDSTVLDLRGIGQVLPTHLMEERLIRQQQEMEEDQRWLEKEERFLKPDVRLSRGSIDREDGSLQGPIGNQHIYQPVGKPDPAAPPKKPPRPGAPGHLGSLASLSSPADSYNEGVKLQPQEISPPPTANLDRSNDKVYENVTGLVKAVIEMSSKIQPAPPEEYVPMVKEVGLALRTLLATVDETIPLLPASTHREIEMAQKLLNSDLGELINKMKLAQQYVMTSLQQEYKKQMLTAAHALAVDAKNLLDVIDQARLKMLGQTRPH
Sequence of Mitogen-activated protein kinase 9 (Homo sapiens) (P45984 whole entry, looked up): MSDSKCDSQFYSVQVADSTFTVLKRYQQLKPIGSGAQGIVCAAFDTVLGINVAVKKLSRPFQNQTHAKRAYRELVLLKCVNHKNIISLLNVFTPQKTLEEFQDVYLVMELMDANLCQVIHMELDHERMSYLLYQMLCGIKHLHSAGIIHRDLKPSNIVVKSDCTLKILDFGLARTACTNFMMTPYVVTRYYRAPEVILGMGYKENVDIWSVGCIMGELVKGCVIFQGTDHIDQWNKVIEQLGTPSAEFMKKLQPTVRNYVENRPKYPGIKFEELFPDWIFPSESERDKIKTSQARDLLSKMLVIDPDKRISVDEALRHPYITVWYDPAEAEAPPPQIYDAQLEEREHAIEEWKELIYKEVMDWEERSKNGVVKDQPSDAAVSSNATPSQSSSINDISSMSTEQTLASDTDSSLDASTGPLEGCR
Sequence of Mitogen-activated protein kinase 8 (Homo sapiens) (P45983 whole entry): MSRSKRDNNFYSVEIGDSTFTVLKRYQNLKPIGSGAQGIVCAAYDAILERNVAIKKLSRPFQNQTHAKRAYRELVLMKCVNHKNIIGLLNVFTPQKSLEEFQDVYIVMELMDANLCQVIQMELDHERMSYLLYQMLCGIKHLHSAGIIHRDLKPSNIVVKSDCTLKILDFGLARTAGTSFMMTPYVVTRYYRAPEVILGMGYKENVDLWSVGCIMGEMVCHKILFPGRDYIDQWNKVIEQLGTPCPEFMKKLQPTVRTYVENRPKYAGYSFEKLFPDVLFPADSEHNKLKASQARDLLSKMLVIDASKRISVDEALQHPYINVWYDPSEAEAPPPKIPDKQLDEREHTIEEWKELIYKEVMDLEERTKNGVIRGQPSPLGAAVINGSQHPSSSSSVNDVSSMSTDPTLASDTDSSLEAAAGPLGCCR
Sequence of Mast/stem cell growth factor receptor Kit (Homo sapiens) (P10721 whole entry): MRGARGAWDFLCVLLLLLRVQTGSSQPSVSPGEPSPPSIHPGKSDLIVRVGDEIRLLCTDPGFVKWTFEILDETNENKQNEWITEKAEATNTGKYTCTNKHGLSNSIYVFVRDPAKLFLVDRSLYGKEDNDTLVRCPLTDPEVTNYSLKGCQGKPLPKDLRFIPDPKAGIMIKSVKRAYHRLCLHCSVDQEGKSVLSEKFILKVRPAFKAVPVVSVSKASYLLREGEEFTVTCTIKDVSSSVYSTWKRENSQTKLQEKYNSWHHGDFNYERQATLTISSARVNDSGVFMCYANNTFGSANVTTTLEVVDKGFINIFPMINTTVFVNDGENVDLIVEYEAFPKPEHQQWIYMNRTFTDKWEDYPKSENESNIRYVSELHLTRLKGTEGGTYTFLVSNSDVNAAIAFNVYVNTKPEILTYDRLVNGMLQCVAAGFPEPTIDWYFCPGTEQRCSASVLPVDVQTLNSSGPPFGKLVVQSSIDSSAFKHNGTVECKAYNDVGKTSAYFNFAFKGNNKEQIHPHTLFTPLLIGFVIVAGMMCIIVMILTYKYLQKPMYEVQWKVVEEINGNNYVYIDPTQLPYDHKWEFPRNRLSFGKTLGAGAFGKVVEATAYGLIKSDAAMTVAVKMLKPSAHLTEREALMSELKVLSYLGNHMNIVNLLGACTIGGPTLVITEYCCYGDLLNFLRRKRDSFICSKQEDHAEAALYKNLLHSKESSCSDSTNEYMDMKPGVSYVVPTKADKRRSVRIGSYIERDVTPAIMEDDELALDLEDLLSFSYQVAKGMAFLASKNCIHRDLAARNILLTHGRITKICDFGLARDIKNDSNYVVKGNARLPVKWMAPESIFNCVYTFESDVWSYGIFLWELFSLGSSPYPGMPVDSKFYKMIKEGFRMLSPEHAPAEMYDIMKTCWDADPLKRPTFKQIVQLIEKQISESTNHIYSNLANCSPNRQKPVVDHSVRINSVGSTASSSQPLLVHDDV

In series [1], `O=C1c2ccccc2-c2n[nH]c3cccc1c23` displayed a concentration for half-maximal inhibition (IC50) of 98 nM.
In the case of `COc1cc(OC2CCN(C)CC2)ccc1Nc1ncc2c(n1)n(C1CCCC1)c(=O)n2C`, the inhibition in series [2], in [3], in [4] and in series [5] was above 40% in each case.
Take `CC(C)(C)Nc1nc(Nc2ccc(C(N)=O)cc2)cc(N)c1C#N`: the inhibition in vivo at 100 mg/kg in the series on A549 was found to be 47%.
In the case of `c1nc2nc(Nc3ccc(N4CCOCC4)cc3)nc(NC3CCCCC3)c2[nH]1` [REVERSINE], the AUC at 96 h in “in vivo” is 0.786 ng·h/mL. Further, the inhibition in vivo at 30 mg/kg with HCT-116 [6] is 49%. Also, the figures for the inhibition in vivo at 150 mg/kg in the series with HCT-116 [7] and in the series with COLO 205 were 74% and 63%, respectively.
With `CC(C)CNc1nc(-c2cccc3ncccc23)cn2c(-c3ccc(C(=O)NC4CC4)cc3)cnc12`, in series [1], the IC50 is 9 nM.
On to `CCc1cccc(CC)c1NC(=O)c1nn(C)c2c1CCc1cnc(Nc3ccc(C(=O)NC4CCN(C)CC4)cc3OC(F)(F)F)nc1-2`, for which the half-life in [8] was 8 h. In series [9], this compound showed a bioavailability of 37.9%. Also, the inhibition in vivo at 90 mg/kg in the series with A2780 was 53%.
In [10], `Cc1nc(N2CCOCC2)ccc1Nc1nc(NC(C)(C)CO)c2c(C#N)c[nH]c2n1` yielded a half-inhibitory concentration (IC50) of 5.5 nM and an inhibition constant (Ki) below 0.5 nM.
As for `COc1cc(N2CCC(O)CC2)ccc1Nc1nc(Nc2ccccc2S(=O)(=O)C(C)C)c2nc[nH]c2n1`, inhibition in series [11] was half-maximal at 50 nM (IC50).
On to `CCc1cccc(CC)c1NC(=O)c1ccn2c1CCc1cnc(Nc3ccc(N4CCN(C)CC4)cc3OC)nc1-2`, for which the half-life in series [12] was 3.4 h; in series [14], 2.9 h; in series [16], 3.9 h. Besides, the Cmax in series [13] is 629 nM; in series [15], 3060 nM; in series [17], 188 nM. The bioavailability in series [18] was found to be 45.2%; in series [19], 90.3%.
In [10], `Cc1nc(N2CCOCC2)ccc1Nc1nc(NC2CCOCC2)c2c(C#N)c[nH]c2n1` yielded a half-inhibitory concentration (IC50) of 2.5 nM and a Ki below 0.5 nM. For the same compound, the IC50 with MDA-MB-231 lay within 2 to 6 nM.
In the series with Mus musculus, `COc1cc(-c2cnn(C)c2)ccc1Nc1ncc2ccnc(N[C@@H](C)C(C)(C)C)c2n1` yielded an inhibition in vivo at 100 mg/kg above 80%.
